Measurements from ChEMBL document CHEMBL1148573, “Design, synthesis, and binding affinities of potential positron emission tomography (PET) ligands for visualization of brain dopamine D3 receptors” (J Med Chem, 2006).

Assays:
D(3) dopamine receptor = D(3) dopamine receptor (Homo sapiens, UniProt P35462); assay: biochemical
Description: Displacement of [3H]spiroperidol from cloned human dopamine receptor D3 expressed in CHO cells

D(2) dopamine receptor = D(2) dopamine receptor (Homo sapiens, UniProt P14416); assay: biochemical
Description: Displacement of [3H]spiroperidol from cloned human dopamine receptor D2(long) expressed in rat C6 glioma cells

[1] = Distribution coefficient at pH 7.4; assay type: physicochemical; details: octanol/water
[2] = Partition coefficient measured; assay type: physicochemical; details: octanol/water
[3] = Apparent permeability assessed by Caco-2 layer assay; assay type: ADME, cell-based; details: human

Sequence of D(2) dopamine receptor (P14416 whole entry): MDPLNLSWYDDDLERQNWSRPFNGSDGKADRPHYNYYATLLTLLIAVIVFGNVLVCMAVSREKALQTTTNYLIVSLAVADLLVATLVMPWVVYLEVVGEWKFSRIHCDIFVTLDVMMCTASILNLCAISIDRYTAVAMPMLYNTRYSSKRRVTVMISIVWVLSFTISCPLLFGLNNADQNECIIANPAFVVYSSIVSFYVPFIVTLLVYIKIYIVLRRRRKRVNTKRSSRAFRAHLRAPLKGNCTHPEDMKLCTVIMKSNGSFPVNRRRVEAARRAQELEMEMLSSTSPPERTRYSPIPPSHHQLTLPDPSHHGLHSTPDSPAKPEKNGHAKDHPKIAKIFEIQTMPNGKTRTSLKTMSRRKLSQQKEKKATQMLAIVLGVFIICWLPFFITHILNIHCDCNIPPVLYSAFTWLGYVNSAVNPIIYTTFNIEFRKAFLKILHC
Sequence of D(3) dopamine receptor (P35462 whole entry): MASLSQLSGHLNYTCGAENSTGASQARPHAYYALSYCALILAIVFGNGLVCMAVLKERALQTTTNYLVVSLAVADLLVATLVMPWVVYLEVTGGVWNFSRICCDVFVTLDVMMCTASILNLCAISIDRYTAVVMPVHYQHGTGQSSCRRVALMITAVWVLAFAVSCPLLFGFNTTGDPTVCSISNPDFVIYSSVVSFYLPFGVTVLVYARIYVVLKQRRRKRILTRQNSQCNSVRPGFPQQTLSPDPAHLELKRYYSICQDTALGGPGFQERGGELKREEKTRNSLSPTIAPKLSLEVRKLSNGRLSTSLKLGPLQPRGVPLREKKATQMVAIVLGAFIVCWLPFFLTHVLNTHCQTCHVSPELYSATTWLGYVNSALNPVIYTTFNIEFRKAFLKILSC

## COc1ccccc1N1CCN(CCCCNC(=O)c2cc3ccccc3oc2=O)CC1
D(3) dopamine receptor
  Ki: 60.1 nM
D(2) dopamine receptor
  Ki: 146 nM

## COc1ccc2onc(N3CCN(CCCCNC(=O)c4ccc(N5CCOCC5)cc4)CC3)c2c1
[1]
  logD: 2.96
D(3) dopamine receptor
  Ki: 38 nM
[2]
  logP: 3.16
[3]
  Papp: 36.3 ×10⁻⁶ cm/s
D(2) dopamine receptor
  Ki: > 750 nM

## COc1ccc2onc(N3CCN(CCCCNC(=O)c4cccc(-c5ncccn5)c4)CC3)c2c1
D(3) dopamine receptor
  Ki: 1140 nM
D(2) dopamine receptor
  Ki: > 1000 nM

## COc1ccc2onc(N3CCN(CCCCNC(=O)c4cc5cccc(OC)c5o4)CC3)c2c1
D(3) dopamine receptor
  Ki: 98 nM
D(2) dopamine receptor
  Ki: > 750 nM

## COc1ccc2onc(N3CCN(CCCCNC(=O)c4ccc(-n5ccnc5)cc4)CC3)c2c1
[1]
  logD: 2.42
D(3) dopamine receptor
  Ki: 22.6 nM
[2]
  logP: 2.63
[3]
  Papp: 6.56 ×10⁻⁶ cm/s
D(2) dopamine receptor
  Ki: > 750 nM

## COc1ccc2onc(N3CCN(CCCCNC(=O)c4cccc(N5CCOCC5)c4)CC3)c2c1
D(3) dopamine receptor
  Ki: 1440 nM
D(2) dopamine receptor
  Ki: > 1000 nM

## COc1ccccc1N1CCN(CCCCNC(=O)c2ccc3nccnc3c2)CC1
D(3) dopamine receptor
  Ki: 77.9 nM
D(2) dopamine receptor
  Ki: 179 nM

## COc1ccc2onc(N3CCN(CCCCNC(=O)c4ccc5nccnc5c4)CC3)c2c1
D(3) dopamine receptor
  Ki: 220 nM
D(2) dopamine receptor
  Ki: > 750 nM

## COc1ccc2onc(N3CCN(CCCCNC(=O)c4cc(-c5ccco5)n[nH]4)CC3)c2c1
[1]
  logD: 2.43
D(3) dopamine receptor
  Ki: 21.4 nM
[2]
  logP: 2.98
[3]
  Papp: 7.39 ×10⁻⁶ cm/s
D(2) dopamine receptor
  Ki: > 750 nM

## COc1ccccc1N1CCN(CCCCNC(=O)c2cc(-c3ccco3)[nH]n2)CC1
D(3) dopamine receptor
  Ki: 19.3 nM
D(2) dopamine receptor
  Ki: 130 nM

## COc1ccc2onc(N3CCN(CCCCNC(=O)c4ccc5c(c4)OCO5)CC3)c2c1
D(3) dopamine receptor
  Ki: 118 nM
D(2) dopamine receptor
  Ki: > 750 nM

## COc1cccc2cc(C(=O)NCCCCN3CCN(c4nc5ccccc5[nH]4)CC3)oc12
D(3) dopamine receptor
  Ki: > 8500 nM
D(2) dopamine receptor
  Ki: > 750 nM

## COc1ccc2ccnc(N3CCN(CCCCNC(=O)c4cc5cccc(OC)c5o4)CC3)c2c1
D(3) dopamine receptor
  Ki: 102 nM

## COc1ccccc1N1CCN(CCCCNC(=O)c2ccc(-n3ccnc3)cc2)CC1
D(3) dopamine receptor
  Ki: 4.79 nM
D(2) dopamine receptor
  Ki: 27.2 nM

## COc1ccc2onc(N3CCN(CCCCNC(=O)c4cc5ccccc5oc4=O)CC3)c2c1
D(3) dopamine receptor
  Ki: > 2700 nM
D(2) dopamine receptor
  Ki: > 750 nM

## COc1cccc2cc(C(=O)NCCCCN3CCN(c4cccc5nccnc45)CC3)oc12
D(3) dopamine receptor
  Ki: 262 nM
D(2) dopamine receptor
  Ki: 1250 nM

## COc1ccccc1N1CCN(CCCCNC(=O)c2ccc3c(c2)OCO3)CC1
D(3) dopamine receptor
  Ki: 14.7 nM
D(2) dopamine receptor
  Ki: 86.2 nM

## COc1ccccc1N1CCN(CCCCNC(=O)c2cc3cccc(OC)c3o2)CC1
D(3) dopamine receptor
  Ki: 25.5 nM
D(2) dopamine receptor
  Ki: 369 nM

## COc1cccc2cc(C(=O)NCCCCN3CCN(c4[nH]nc5ccccc45)CC3)oc12
D(3) dopamine receptor
  Ki: 127 nM
D(2) dopamine receptor
  Ki: 56.6 nM

## COc1ccc2oc(N3CCN(CCCCNC(=O)c4cc5cccc(OC)c5o4)CC3)nc2c1
D(3) dopamine receptor
  Ki: > 8500 nM
D(2) dopamine receptor
  Ki: > 750 nM

## COc1ccccc1N1CCN(CCCCNC(=O)c2ccc(N3CCOCC3)cc2)CC1
D(3) dopamine receptor
  Ki: 23.9 nM
D(2) dopamine receptor
  Ki: 141 nM

## COc1ccc2onc(N3CCN(CCCCNC(=O)c4ccc5nonc5c4)CC3)c2c1
D(3) dopamine receptor
  Ki: 85 nM
D(2) dopamine receptor
  Ki: > 750 nM

## COc1ccccc1N1CCN(CCCCNC(=O)c2ccc3nonc3c2)CC1
D(3) dopamine receptor
  Ki: 58.5 nM
D(2) dopamine receptor
  Ki: > 1000 nM

## COc1ccc2onc(N3CCN(CCCCNC(=O)c4cccc(-c5noc(C)n5)c4)CC3)c2c1
D(3) dopamine receptor
  Ki: 1280 nM
D(2) dopamine receptor
  Ki: > 1000 nM

## COc1ccc2onc(N3CCN(CCCCNC(=O)c4cccc(-n5ccnc5)c4)CC3)c2c1
D(3) dopamine receptor
  Ki: 5540 nM
D(2) dopamine receptor
  Ki: > 1000 nM
